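Five compound concentrations were applied to cells in 96-well plates for 48 hours; endpoints were derived by simple linear interpolation of the resulting dose-response curve. GI50: concentration for 50% inhibition of growth.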 Active and inactive are the calls of the source. Cut-off read from the data, not from the text of the source: active = GI50 up to about 1.1 µM and inactive = higher.
Columns and labels:
Assay in all cases: inhibition of tumour cell growth, NCI panel, 48 h
[1] = tested on: A498
[2] = tested on: HCC 2998
[3] = tested on: HCT-116
[4] = tested on: HOP-62
[5] = tested on: HOP-92
[6] = tested on: Malme-3M
[7] = tested on: NCI-H23
[8] = tested on: NCI-H460
[9] = tested on: NCI-H522
[10] = tested on: OVCAR-5
[11] = tested on: SF-268
[12] = tested on: SF-539
[13] = tested on: SK-MEL-28
[14] = tested on: SNB-19
[15] = tested on: UO-31
[16] = tested on: MCF7
[17] = tested on: MDA-MB-231
[18] = tested on: MDA-MB-435
[19] = tested on: NCI/ADR-RES
[20] = tested on: PC-3

| Compound | GI50 [1] | GI50 [2] | GI50 [3] | GI50 [4] | GI50 [5] | GI50 [6] | GI50 [7] | GI50 [8] | GI50 [9] | GI50 [10] | GI50 [11] | GI50 [12] | GI50 [13] | GI50 [14] | GI50 [15] | GI50 [16] | GI50 [17] | GI50 [18] | GI50 [19] | GI50 [20] |
| --- | --- | --- | --- | --- | --- | --- | --- | --- | --- | --- | --- | --- | --- | --- | --- | --- | --- | --- | --- | --- |
| CCCC1C[C@H]2CCCCN2[C@H]2CCCN12 (some centres not stated) | > 100 µM (inactive) | > 100 µM (inactive) | > 45.2 µM (inactive) | > 100 µM (inactive) | > 100 µM (inactive) | > 100 µM (inactive) | > 100 µM (inactive) | > 66.4 µM (inactive) | > 100 µM (inactive) | > 100 µM (inactive) | > 100 µM (inactive) | > 100 µM (inactive) | > 100 µM (inactive) | > 100 µM (inactive) | > 100 µM (inactive) |  |  |  |  |  |
| Cc1cc2c3c(coc3c1-c1c(C)cc3c4c(coc14)C(=O)C(O)=C3C(C)C)C(=O)C(O)=C2C(C)C | 12.2 µM (inactive) | 3.68 µM (inactive) | 3.54 µM (inactive) | 11.5 µM (inactive) | 2.62 µM (inactive) | 15.6 µM (inactive) | 3.53 µM (inactive) | 4.37 µM (inactive) | 5.92 µM (inactive) | 17.9 µM (inactive) | 5.08 µM (inactive) | 3.44 µM (inactive) | 10.1 µM (inactive) | 4.35 µM (inactive) | 16.6 µM (inactive) |  |  |  |  |  |
| CC1=C(C(=O)Nc2cc(F)c(F)cc2F)C(c2cccc([N+](=O)[O-])c2)C(C(=O)Nc2ccccc2C(F)(F)F)=C(C)N1 (configuration not stated) | 11.2 µM (inactive) | 20 µM (inactive) |  | 22.4 µM (inactive) | 10.9 µM (inactive) | 25.4 µM (inactive) | 16.6 µM (inactive) | 18.5 µM (inactive) | 13.8 µM (inactive) | 17.9 µM (inactive) | 18.7 µM (inactive) | 20.7 µM (inactive) | 22 µM (inactive) | 30.7 µM (inactive) | 12.3 µM (inactive) |  |  |  |  |  |
| N=C(N)NS(=O)(=O)c1ccc(NNC(=O)c2cccc3c(O)c4ccccc4nc23)cc1 |  | 18.1 µM (inactive) | 24.5 µM (inactive) | 22 µM (inactive) | 25.3 µM (inactive) | 19.6 µM (inactive) | 31.2 µM (inactive) | 20.6 µM (inactive) | 21.6 µM (inactive) | 42.6 µM (inactive) | 33.7 µM (inactive) | 26.5 µM (inactive) | 26.2 µM (inactive) | 48.6 µM (inactive) | 18.9 µM (inactive) | 16.3 µM (inactive) | 37.6 µM (inactive) | 25.5 µM (inactive) | 38.3 µM (inactive) | 28.4 µM (inactive) |
| NC(=S)NNC(=O)/C(=C/c1ccc(/C=C(\NC(=O)c2ccccc2)C(=O)NNC(N)=S)cc1)NC(=O)c1ccccc1 | > 100 µM (inactive) | > 100 µM (inactive) | 75 µM (inactive) | > 100 µM (inactive) | > 100 µM (inactive) | > 100 µM (inactive) | > 100 µM (inactive) | > 100 µM (inactive) | 25.4 µM (inactive) | > 100 µM (inactive) | > 100 µM (inactive) | > 100 µM (inactive) | > 100 µM (inactive) | > 100 µM (inactive) | > 100 µM (inactive) |  |  |  |  |  |
| c1cc(-c2ccc(-c3ccc(-c4ccc(-c5cccc6nsnc56)[nH]4)c4nsnc34)[nH]2)c2nsnc2c1 |  | > 100 µM (inactive) | > 100 µM (inactive) | > 100 µM (inactive) | > 100 µM (inactive) | > 100 µM (inactive) | > 100 µM (inactive) | > 100 µM (inactive) | > 100 µM (inactive) | > 100 µM (inactive) | > 100 µM (inactive) |  | > 100 µM (inactive) | > 100 µM (inactive) | > 100 µM (inactive) | > 100 µM (inactive) | > 100 µM (inactive) | > 100 µM (inactive) | > 100 µM (inactive) | > 100 µM (inactive) |
| CCNC1=C(NC(=O)CCl)C(=O)c2ccccc2C1=O |  | > 10 µM (inactive) | 18.4 µM (inactive) | 16.5 µM (inactive) | 21 µM (inactive) | 19.9 µM (inactive) | 19 µM (inactive) | 23.7 µM (inactive) | 15.1 µM (inactive) | 19.6 µM (inactive) | 18.1 µM (inactive) | 21.7 µM (inactive) | 17.6 µM (inactive) | 26.7 µM (inactive) |  | 22.4 µM (inactive) | 21.5 µM (inactive) | 19.1 µM (inactive) | 23.6 µM (inactive) | 16 µM (inactive) |
| COC(=O)[C@@H]1C[C@H]2OC(=O)CC[C@]2(C)O[C@H]1[C@H]1O[C@@](C)(O)CCC[C@H]1C |  | > 50 µM (inactive) | > 50 µM (inactive) | > 50 µM (inactive) |  | > 50 µM (inactive) | > 50 µM (inactive) | > 50 µM (inactive) | 28.6 µM (inactive) | > 50 µM (inactive) | > 50 µM (inactive) | > 50 µM (inactive) | > 50 µM (inactive) | > 50 µM (inactive) | > 50 µM (inactive) | > 50 µM (inactive) | > 50 µM (inactive) | > 50 µM (inactive) |  | > 50 µM (inactive) |
| CC(=O)C1Cn2c(=O)c3cc4ccccc4cc3c(=O)n2C=C1C (configuration not stated) | 43.5 µM (inactive) | > 100 µM (inactive) | > 100 µM (inactive) | > 100 µM (inactive) | 61.2 µM (inactive) | > 100 µM (inactive) | > 100 µM (inactive) | 97.9 µM (inactive) | > 100 µM (inactive) | > 100 µM (inactive) | > 100 µM (inactive) | > 100 µM (inactive) | > 100 µM (inactive) | > 100 µM (inactive) | > 100 µM (inactive) |  |  |  |  |  |
| C=C(C)C1Cc2cc(C(C)=O)ccc2O1 (configuration not stated) |  | > 100 µM (inactive) | > 100 µM (inactive) |  | > 100 µM (inactive) | > 100 µM (inactive) | > 100 µM (inactive) | > 100 µM (inactive) | > 100 µM (inactive) | > 100 µM (inactive) | > 100 µM (inactive) | > 100 µM (inactive) | > 100 µM (inactive) | > 100 µM (inactive) | > 100 µM (inactive) | > 100 µM (inactive) | > 100 µM (inactive) | > 100 µM (inactive) | > 100 µM (inactive) | > 100 µM (inactive) |
| N#C/C(=C(/S)Nc1ccccc1)c1nc2ccccc2[nH]1 | > 10 µM (inactive) | > 10 µM (inactive) | > 10 µM (inactive) | > 10 µM (inactive) | > 10 µM (inactive) | > 10 µM (inactive) | > 10 µM (inactive) | > 10 µM (inactive) | > 10 µM (inactive) | > 10 µM (inactive) | > 10 µM (inactive) | > 10 µM (inactive) | > 10 µM (inactive) | > 10 µM (inactive) | > 10 µM (inactive) |  |  |  |  |  |
| Cc1ccc(S(=O)(=O)Nc2cccc3c(=O)nc[nH]c23)cc1 | > 100 µM (inactive) | > 82 µM (inactive) | 99.3 µM (inactive) | > 100 µM (inactive) | > 39.6 µM (inactive) | > 100 µM (inactive) | 90.8 µM (inactive) | > 100 µM (inactive) | 76.6 µM (inactive) | > 100 µM (inactive) | > 100 µM (inactive) | > 100 µM (inactive) | > 100 µM (inactive) | > 100 µM (inactive) | > 68.1 µM (inactive) |  |  |  |  |  |
| CN1CCN(C(=S)N(C)C(=O)c2ccc(Cl)cc2)CC1 |  | > 100 µM (inactive) |  |  | > 100 µM (inactive) | > 100 µM (inactive) | > 100 µM (inactive) | > 100 µM (inactive) | > 100 µM (inactive) | > 100 µM (inactive) | > 100 µM (inactive) |  | > 100 µM (inactive) | > 100 µM (inactive) | > 100 µM (inactive) | > 100 µM (inactive) | > 100 µM (inactive) | > 100 µM (inactive) |  |  |
| C1CCNCC1.O=C1NC(=S)N/C1=C/c1ccccc1O |  | 23.5 µM (inactive) | > 100 µM (inactive) | > 100 µM (inactive) | > 100 µM (inactive) | > 100 µM (inactive) | > 100 µM (inactive) |  | 92 µM (inactive) | > 100 µM (inactive) | > 100 µM (inactive) | > 100 µM (inactive) | > 100 µM (inactive) | > 100 µM (inactive) | 95.3 µM (inactive) | > 100 µM (inactive) | > 100 µM (inactive) | > 100 µM (inactive) | > 100 µM (inactive) | > 100 µM (inactive) |
| CCOP1(=O)C=CC(Cl)=C(C)C1 (configuration not stated) | 29.2 µM (inactive) | 15.9 µM (inactive) | 5.58 µM (inactive) | 27.2 µM (inactive) | 16.9 µM (inactive) | 14.3 µM (inactive) | 13 µM (inactive) | 27.4 µM (inactive) | 4.04 µM (inactive) | 24.2 µM (inactive) | 22.1 µM (inactive) | 17.8 µM (inactive) | 16.2 µM (inactive) | 67.5 µM (inactive) | 25.6 µM (inactive) |  |  |  |  |  |
| NC(CCCCNC(=O)OCc1ccccc1)C(=O)NC(CCCCNC(=O)OCc1ccccc1)C(=O)ON1C(=O)CCC1=O (configuration not stated) | > 100 µM (inactive) | > 100 µM (inactive) | > 100 µM (inactive) | > 100 µM (inactive) | > 100 µM (inactive) | 61.4 µM (inactive) | > 100 µM (inactive) | > 100 µM (inactive) |  | > 100 µM (inactive) |  |  | > 100 µM (inactive) | > 100 µM (inactive) | > 100 µM (inactive) | > 100 µM (inactive) | > 100 µM (inactive) |  |  | > 100 µM (inactive) |
| CCOc1ccc(NCc2cc(OC)c(OC)c(OC)c2)cc1 |  | 0.771 µM (active) | 0.427 µM (active) | 0.753 µM (active) | 5.43 µM (inactive) |  | 1.24 µM (inactive) | 0.499 µM (active) | 0.333 µM (active) |  | 2.29 µM (inactive) | 0.486 µM (active) | 2.57 µM (inactive) | 1.95 µM (inactive) | 4.8 µM (inactive) | 0.435 µM (active) | 2.5 µM (inactive) |  | 0.324 µM (active) | 1.5 µM (inactive) |
